This note sets out measurements from patent US20230150951A1, “2,5- OR 2,6-DISUBSTITUTED HYDROQUINONE DERIVATIVES WITH AT LEAST ONE CARBOXY, SULFO OR AMIDO GROUP USEFUL AS MEDICAMENTS” (OM PHARMA SA, priority 2020, published 2023).

What all share (assay type): cell-based
One assay addresses T1, VEGFR-2 (Homo sapiens, UniProt P35968).
T1 construct: endogenous in cells; host or cells: primary HUVEC
Kind of assay: VEGF-165 induced phosphorylation of VEGF-Receptor on HUVEC. Conditions: HUVEC preincubated 60 min, VEGF165 25 ng/mL 2 min; read-out: VEGFR-Phosphorylation inhibition IC50.

The next assay has as its target T2, FGF-2 (Homo sapiens, UniProt P09038).
T2 construct: purchased Peprotech 100-18C
Description: FGF-2 induced sprouting of HUVEC, spheroid-based cellular angiogenesis assay. To be noted: FGF-2 25 ng/mL preincubated with compound, 24 h. Summed up: (§1)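 Spheroids of 400 HUVEC (passage 3–4), embedded in collagen gel, were stimulated with FGF-1, FGF-2 or VEGF-A (final 25 ng/mL) preincubated 30 min at 37°C with compound (final 1.56–100 μM).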

The target in the next assay is T3, FGF-1 (Homo sapiens, UniProt P05230).
T3 construct: purchased Peprotech 100-17A
Kind of assay: FGF-1 induced sprouting of HUVEC, spheroid-based cellular angiogenesis assay. Conditions: FGF-1 25 ng/mL preincubated with compound, 24 h. A digest of the protocol: as §1

Assay [1] relates to Human neutrophils. Description: Inhibition of ROS production in human neutrophils (isoluminol chemiluminescence). To be noted: Homo sapiens, Neutrophil, fMLP+TNF-α stimulated PMN. Summed up:
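Neutrophils from healthy-donor buffy coats (3×10^6/ml in HBSS with Ca/Mg) pre-incubated 30 min at 37° C with compound (0.1–10 μM), primed with TNF-α 20 ng/ml for 10 min, then added to fibrinogen-coated wells. Isoluminol/HRP chemiluminescence recorded every 25 sec for 250 sec after fMLP (1 μM), background-subtracted.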

The target of the next assay is T4, VEGF-A (Homo sapiens, UniProt P15692).
T4 construct: purchased ProQinase GmbH
T4 sequence (P15692 27-191 isoform P15692-4): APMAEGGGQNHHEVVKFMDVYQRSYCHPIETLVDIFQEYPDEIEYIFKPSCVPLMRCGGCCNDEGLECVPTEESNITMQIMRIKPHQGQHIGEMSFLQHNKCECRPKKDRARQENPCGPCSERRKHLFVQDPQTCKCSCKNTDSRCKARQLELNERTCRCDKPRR
Description: VEGF-A induced sprouting of HUVEC, spheroid-based cellular angiogenesis assay. Conditions: VEGF-A 25 ng/mL preincubated with compound, 24 h, read-out: VEGF-A1 IC50. The protocol: Aim of this in vitro method is to assess compounds effects on FGF-2, FGF-1, or VEGF-A induced sprouting of human umbilical vein endothelial cells (HUVEC) in the spheroid-based cellular angiogenesis assay. Before adding the growth factors to the cells, they were preincubated with the compound. Sunitinib was tested as a control (without preincubation).
IC50 values determined for the tested compounds are expressed in microM [μM] and the values for the inhibition of FGF-1, FGF2 and VEGF-A induced growth (sprouting) are listed after each compound in the examples after chemical characterization.
Sprouting test was performed on the compounds dissolved in DMSO to reach 100-fold concentrated stock solutions and dissolved in culture media. Sunitinib as reference compound was provided by ProQinase GmbH. Growth factors were purchased from rhFGF-basic (FGF-2), Peprotech, New Jersey, USA, #100-18C, Lot #0415571; rhFGF-acidic (FGF-1), Peprotech, New Jersey, USA, #100-17A, Lot #031207; hVEGF-A165 (ProQinase GmbH, Freiburg, Germany; 05.02.2010) were used for stimulation of HUVEC cells growth.
Test system: Endothelial cells from human umbilical vein (HUVEC) from pooled donors were stored frozen with 70% medium, 20% FCS, 10% DMSO at about 1×10^6 cells/ampoule. HUVEC cells, primary human umbilical vein endothelial cells (PromoCell, Heidelberg, Germany), were used after passage 3 to 4. Morphology of the cells are adherent, cobblestone-like growing as monolayer and were cultured in endothelial cell growth and basal medium (ECGM/ECBM, PromoCell). The subculture was split 1:3; every 3-5 days, seed out at ca. 1×10^4 cells/cm^2 and incubated at 37° C. with 5% CO2 with a doubling time 24-48 hours
Dilution of test compounds: 100× concentrated solutions (concerning to the final assay concentrations) of each test compound were prepared with the appropriate solvent (in DMSO or in water). These 100×compound solutions were further diluted in endothelial cell growth and basal medium (ECBM) 1:7.5 to get a 13.33× concentrated solution. 75 μl of the 13.33×solution was subsequently mixed with 25 μl of 40× concentrated stimulus (solved in ECBM), resulting in a 10×concentrated stimulus/compound mixture. This mixture (100 μl) was incubated for 30 min at 37° C. and then added to 900 μl gel, containing the HUVEC spheroids (resulting in the final assay concentration).
Test method: the experiments were pursued in modification of the originally published protocol (Korff and Augustin: J Cell Sci 112: 3249-58, 1999). In brief, spheroids were prepared as described (Korff and Augustin: J Cell Biol 143: 1341-52, 1998) by pipetting 400 HUVEC in a hanging drop on plastic dishes to allow overnight spheroid aggregation. 50 HUVEC spheroids were then seeded in 0.9 ml of a collagen gel and pipetted into individual wells of a 24 well plate to allow polymerization. The test compounds were preincubated with the growth factors (FGF-1, FGF-2 or VEGF-A final concentration 25 ng/mL) in a 10-fold concentrated solution and subsequently, 100 μl of this solution was added on top of the polymerized gel. All compounds were diluted in solvent (DMSO or water) as 100×stocks first (which means 100×stocks of each final assay concentration were prepared in solvent). Subsequently, these stocks were further diluted in medium (resulting in the 13.33×stocks of each final assay concentration) with final concentrations tested: 100, 50, 25, 12.5, 6.25, 3.13 and 1.56×10^−6 M). Plates were incubated at 37° C. for 24 hours and fixed by adding 4% PFA (Roth, Karlsruhe, Germany).
Quantification of growth factor inhibition: sprouting intensity of HUVEC spheroids treated with the growth factor and the inhibitors were quantitated by an image analysis system determining the cumulative sprout length per spheroid (CSL).

The subject of assay [2] is Human neutrophils. Description: Neutrophil adhesion under static conditions. Conditions: fMLP-stimulated adhesion to fibrinogen; method: 40 μM and 80 μM, concentration of the value not stated. A digest of the protocol:
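Donor buffy-coat neutrophils (3×10^6/ml, PBS with Ca/Mg, 10% FCS, pH 7.2) preincubated 30 min at 37° C with 40 μM or 80 μM compound, then stimulated 1 min at 37° C with 1 nM fMLP on fibrinogen-coated glass. Adherent cells fixed and counted by computer; mean ± SD, unpaired t-test.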

T1 sequence (P35968 20-1356): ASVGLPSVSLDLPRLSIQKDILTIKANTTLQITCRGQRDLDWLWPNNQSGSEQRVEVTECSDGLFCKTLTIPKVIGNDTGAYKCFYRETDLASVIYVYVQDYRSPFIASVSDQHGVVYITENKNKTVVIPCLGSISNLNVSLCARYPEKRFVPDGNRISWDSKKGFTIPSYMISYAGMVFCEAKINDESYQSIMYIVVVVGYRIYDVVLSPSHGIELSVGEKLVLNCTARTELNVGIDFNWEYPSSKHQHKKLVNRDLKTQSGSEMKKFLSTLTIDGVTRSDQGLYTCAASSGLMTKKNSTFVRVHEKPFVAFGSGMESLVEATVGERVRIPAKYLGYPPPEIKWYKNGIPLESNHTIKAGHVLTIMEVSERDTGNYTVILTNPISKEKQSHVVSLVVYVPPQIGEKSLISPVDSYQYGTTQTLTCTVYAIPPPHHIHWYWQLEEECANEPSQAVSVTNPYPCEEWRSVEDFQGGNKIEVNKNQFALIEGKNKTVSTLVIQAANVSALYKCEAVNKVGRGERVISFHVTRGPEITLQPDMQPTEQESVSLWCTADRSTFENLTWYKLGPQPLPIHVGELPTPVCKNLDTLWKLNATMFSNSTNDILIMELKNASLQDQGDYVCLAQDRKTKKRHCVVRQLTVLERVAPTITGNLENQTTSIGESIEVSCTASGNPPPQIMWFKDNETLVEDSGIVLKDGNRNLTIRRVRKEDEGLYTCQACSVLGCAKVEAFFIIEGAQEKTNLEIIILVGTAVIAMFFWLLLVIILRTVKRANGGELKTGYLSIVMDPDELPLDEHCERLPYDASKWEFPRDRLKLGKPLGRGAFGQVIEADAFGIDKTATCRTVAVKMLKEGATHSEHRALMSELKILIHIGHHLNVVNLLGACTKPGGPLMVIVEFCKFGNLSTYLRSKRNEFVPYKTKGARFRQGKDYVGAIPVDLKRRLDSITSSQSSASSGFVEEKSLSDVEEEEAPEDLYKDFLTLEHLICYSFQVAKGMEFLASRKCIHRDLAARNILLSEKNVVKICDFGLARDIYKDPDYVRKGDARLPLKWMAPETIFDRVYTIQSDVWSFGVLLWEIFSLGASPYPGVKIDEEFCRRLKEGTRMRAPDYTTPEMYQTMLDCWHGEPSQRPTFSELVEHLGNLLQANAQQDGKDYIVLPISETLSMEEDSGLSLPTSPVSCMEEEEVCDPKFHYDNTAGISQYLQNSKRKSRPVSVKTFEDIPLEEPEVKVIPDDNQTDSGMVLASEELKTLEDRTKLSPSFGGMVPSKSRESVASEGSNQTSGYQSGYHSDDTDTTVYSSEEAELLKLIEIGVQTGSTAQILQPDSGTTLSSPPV
T2 sequence (P09038 134-288): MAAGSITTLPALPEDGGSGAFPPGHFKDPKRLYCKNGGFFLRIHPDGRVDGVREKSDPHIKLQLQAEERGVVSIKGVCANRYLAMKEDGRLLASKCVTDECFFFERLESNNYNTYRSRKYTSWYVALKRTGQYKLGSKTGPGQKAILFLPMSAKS
T3 sequence (P05230 whole entry): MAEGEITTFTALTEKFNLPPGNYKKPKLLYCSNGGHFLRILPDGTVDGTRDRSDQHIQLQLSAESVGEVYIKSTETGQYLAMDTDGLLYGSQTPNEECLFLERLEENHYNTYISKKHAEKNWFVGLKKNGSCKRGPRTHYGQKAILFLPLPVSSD

For orientation: IC50 means the concentration needed to halve the response being measured. Broadly, the inhibition is the percentage by which the read-out fell short of the control. Low readings indicate little suppression, high ones strong suppression. For `COC(=O)c1cc(O)cc(CS(=O)(=O)Cc2cc(O)cc(C(=O)OC)c2O)c1O` [IVc-059a-E2], the IC50 on VEGFR-2 is 2.7 µM; at FGF-2, 94 µM; on FGF-1, 78 µM; with Human neutrophils [1] it was 2.64 µM; on VEGF-A, not below 200 µM. The same compound gave an inhibition at 0.3 µM in the assay on Human neutrophils [1] of 45.7%. Also, the Neutrophil adhesion inhibition with Human neutrophils [2] was determined as 50.5%.

As to `O=C(O)c1cc(NC(=O)c2cc(O)c(C(=O)O)cc2O)ccc1O` [Ia-004a, 4-(3-carboxy-4-hydroxyphenylaminocarbonyl)-2,5-dihydroxybenzoic acid], the concentration for half-maximal inhibition (IC50) on VEGFR-2 was 7.7 µM; at FGF-2, 15 µM; on FGF-1, 32 µM; at VEGF-A it was 28 µM. The compound also showed an inhibition at 0.3 µM with Human neutrophils [1] of 64.6%. The compound further gave a Neutrophil adhesion inhibition in the assay on Human neutrophils [2] of 28.38%.

On to `O=C(O)c1cc(O)cc(C(=O)Nc2c(C(=O)O)cccc2C(=O)O)c1O` [IIa-013a, 2-(3-carboxy-2,5-dihydroxybenzamido)isophthalic acid], for which the half-maximal inhibitory concentration (IC50) at VEGFR-2 is not below 100 µM; on FGF-2, 12 µM; on FGF-1 it was 137 µM; in the assay with Human neutrophils [1], 2.54 µM; on VEGF-A it was 34 µM. In the assay on Human neutrophils [1], this compound gave an inhibition at 0.3 µM of 57.7%. The compound also had a Neutrophil adhesion inhibition with Human neutrophils [2] of 15.75%.

Turning to `O=C(O)c1cc(O)c(C(=O)Nc2cccc(C(=O)O)c2C(=O)O)cc1O` [Ia-011a, 3-(4-carboxy-2,5-dihydroxybenzamido)phthalic acid], the IC50 was not below 100 µM at VEGFR-2, 110 µM on FGF-2, 35 µM at FGF-1 and not below 200 µM on VEGF-A. In the assay on Human neutrophils [1], this compound registered an inhibition at 0.3 µM of 57.7%. Also, the Neutrophil adhesion inhibition with Human neutrophils [2] came to 42.32%.

For the compound `O=C(O)c1ccc(NC(=O)c2cc(O)cc(C(=O)O)c2O)cc1C(=O)O` [IIa-014a, 4-(3-carboxy-2,5-dihydroxybenzamido)phthalic acid], the IC50 at VEGFR-2 is 17.6 µM; at FGF-2, 61 µM; on FGF-1 it was 40 µM; at VEGF-A, 91 µM. This compound also yielded an inhibition at 0.3 µM with Human neutrophils [1] of 73.9%. In the assay with Human neutrophils [2], this compound came in with a Neutrophil adhesion inhibition of 21.5%.

On to `CCOC(=O)c1cc(O)c(C(=O)Nc2ccccc2C(=O)OCC)cc1O` [Ia-001a-E2, ethyl 4-(2-(ethoxycarbonyl)phenylaminocarbonyl)-2,5-dihydroxybenzoate], for which the concentration for half-maximal inhibition (IC50) is 1.25 µM at VEGFR-2; not below 200 µM on FGF-2; 9.2 µM on FGF-1; 2.58 µM in the assay on Human neutrophils [1]; 123 µM at VEGF-A. Besides, the inhibition at 0.3 µM with Human neutrophils [1] was 51.5%. Also, in the assay with Human neutrophils [2], the Neutrophil adhesion inhibition is reported as 50.5%.

In the case of `O=C(O)c1cc(O)c(C(=O)NCCc2ccc(O)c(O)c2)cc1O` [Ia-035a-2, 4-(2-(3,4-Dihydroxyphenyl)ethylaminocarbonyl)-2,5-dihydroxybenzoic acid], the IC50 at VEGFR-2 is 10 µM; at FGF-2, 65 µM; on FGF-1 it was 10 µM; in the assay with Human neutrophils [1], 1.1 µM; at VEGF-A, 109 µM. For the same compound, in the assay on Human neutrophils [1], 0.3 µM produced 58.8% inhibition. Besides, in the assay with Human neutrophils [2], the Neutrophil adhesion inhibition is on record as 21.5%.

With `O=C(O)Cc1cc(O)c(C(=O)Nc2cc(C(=O)O)cc(C(=O)O)c2)cc1O` [IIIa-015a, 5-(4-(carboxymethyl)-2,5-dihydroxybenzamido)isophthalic acid], the IC50 stood at 0.89 µM on VEGFR-2, 114 µM on FGF-2, 16 µM on FGF-1 and 202 µM on VEGF-A. In the assay with Human neutrophils [1], this compound had an inhibition at 0.3 µM of 78.8%. In addition, the Neutrophil adhesion inhibition in the assay on Human neutrophils [2] is 12.13%.

On to `O=C(O)c1ccc(C(=O)O)c(NC(=O)c2cc(O)c(C(=O)O)cc2O)c1` [Ia-012a, 2-(4-carboxy-2,5-dihydroxybenzamido)terephthalic acid], for which the IC50 at VEGFR-2 is not below 100 µM; at FGF-2, 36 µM; at FGF-1, 38 µM; in the assay with Human neutrophils [1] it was 1.85 µM; at VEGF-A, 30 µM. In the assay on Human neutrophils [1], this compound showed an inhibition at 0.3 µM of 59.5%. Further, the Neutrophil adhesion inhibition in the assay with Human neutrophils [2] turned out to be 28.5%.

Take `O=C(O)Cc1ccccc1NC(=O)c1cc(O)cc(C(=O)O)c1O` [IIa-034a, 3-(2-(carboxymethyl)phenylaminocarbonyl)-2,5-dihydroxybenzoic acid]: the IC50 was not below 100 µM on VEGFR-2, 5.7 µM on FGF-2, 22 µM at FGF-1 and 86 µM on VEGF-A. In the assay with Human neutrophils [1], testing at 0.3 µM gave an inhibition of 69.2%. This compound returned a Neutrophil adhesion inhibition in the assay with Human neutrophils [2] of 26.58%.

Turning to `O=C(O)c1cccc(NC(=O)c2cc(O)c(C(=O)O)cc2O)c1` [Ia-002a, 4-(3-carboxyphenylaminocarbonyl)-2,5-dihydroxybenzoic acid], the IC50 on VEGFR-2 was determined as 5.7 µM; on FGF-2, 59 µM; on FGF-1, 20 µM; with Human neutrophils [1], 0.312 µM; at VEGF-A, 71 µM. In the assay with Human neutrophils [1], this compound came in with an inhibition at 0.3 µM of 42.1%. In the assay with Human neutrophils [2], this compound returned a Neutrophil adhesion inhibition of 27.92%.

In the case of `O=C(O)c1cc(O)c(CSCc2cc(O)c(C(=O)O)cc2O)cc1O` [IIIc-058a, 4-((2,5-Dihydroxy-4-carboxyphenyl)methylthiomethyl)-2,5-dihydroxybenzoic acid], the IC50 at VEGFR-2 was determined as 0.29 µM; at FGF-2 it was 12 µM; at FGF-1, 12 µM; in the assay on Human neutrophils [1], 1.17 µM; at VEGF-A, 124 µM. Moreover, testing at 0.3 µM in the assay with Human neutrophils [1] gave an inhibition of 61.2%. In the assay with Human neutrophils [2], the Neutrophil adhesion inhibition came to 23%.

With `O=C(O)Cc1ccccc1NC(=O)c1cc(O)c(C(=O)O)cc1O` [Ia-034a, 4-(2-(carboxymethyl)phenylaminocarbonyl)-2,5-dihydroxybenzoic acid], the IC50 at VEGFR-2 was not below 100 µM; at FGF-2, 14 µM; on FGF-1 it was 79 µM; with Human neutrophils [1], 2.28 µM; at VEGF-A, 102 µM. The same compound gave an inhibition at 0.3 µM with Human neutrophils [1] of 49.1%. The compound further showed a Neutrophil adhesion inhibition with Human neutrophils [2] of 15%.
